The structures appear in SMILES notation.

Compound `*C(=C(*)c1ccc2c(c1)C(C)(C)c1ccccc1-2)c1ccc([Si](C)(C)C)cc1` (repeat unit) gave a CH4 permeability of 525 Barrer, a CO2 permeability of 1900 Barrer, an H2 permeability of 1040 Barrer and an N2 permeability of 200 Barrer. Moreover, the O2 permeability stood at 455 Barrer.
Compound `*O[Si](*)(C)CCC(F)(F)F` (repeat unit) had a CH4 permeability of 201 Barrer, a CO2 permeability of 1390 Barrer, an N2 permeability of 88.3 Barrer and an O2 permeability of 200 Barrer.
For the compound `*c1c(C)cc(-c2cc(C)c(-n3c(=O)c4cc5oc6cc7c(cc6oc5cc4c3=O)C3(CC(C)(C)c4cc5oc6cc8c(=O)n(*)c(=O)c8cc6oc5cc43)CC7(C)C)c3ccccc23)c2ccccc12` (repeat unit), the CH4 permeability was found to be 215 Barrer, the CO2 permeability turned out to be 2980 Barrer, the H2 permeability was determined as 1310 Barrer and the N2 permeability worked out at 130 Barrer. Moreover, the O2 permeability is 432 Barrer.
For the compound `*c1ccc(C(C)(C)c2cccc(N3C(=O)c4ccc(C(c5ccc6c(c5)C(=O)N(*)C6=O)(C(F)(F)F)C(F)(F)F)cc4C3=O)c2)cc1` (repeat unit), the CH4 permeability is 0.217 Barrer, the CO2 permeability was 10.7 Barrer, the H2 permeability was found to be 38.2 Barrer and the N2 permeability was 0.473 Barrer. In addition, the O2 permeability came to 2.89 Barrer.
In turn, `*Oc1ccc(N2C(=O)CCC23CCC(=O)N3c2ccc(Oc3c(F)c(F)c(COC(C4CCCC(C(OCc5c(F)c(F)c(*)c(F)c5F)(C(F)(F)F)C(F)(F)F)C4)(C(F)(F)F)C(F)(F)F)c(F)c3F)cc2)cc1` (repeat unit) registered a CH4 permeability of 0.25 Barrer, a CO2 permeability of 7.1 Barrer, an H2 permeability of 21 Barrer and an N2 permeability of 0.46 Barrer. This compound also registered an O2 permeability of 2.2 Barrer.
`*=CC1CC(C=*)C2C(=O)N(C3CCCC3)C(=O)C12` (repeat unit) gave a CH4 permeability of 0.54 Barrer, a CO2 permeability of 8.8 Barrer, an N2 permeability of 0.45 Barrer and an O2 permeability of 1.95 Barrer.
`*c1ccc(Cc2ccc(N3C(=O)c4ccc(C(c5ccc6c(c5)C(=O)N(*)C6=O)(C(F)(F)F)C(F)(F)F)cc4C3=O)c(C)c2)cc1C` (repeat unit) gave a CH4 permeability of 0.198 Barrer, a CO2 permeability of 8.75 Barrer, an N2 permeability of 0.406 Barrer and an O2 permeability of 2.51 Barrer.
Take `*c1ccc(-c2ccc(N3C(=O)c4ccc([Si](C)(C)c5ccc6c(c5)C(=O)N(*)C6=O)cc4C3=O)c(OC)c2)cc1OC` (repeat unit): the H2 permeability amounted to 9.33 Barrer, the N2 permeability was found to be 0.096 Barrer and the O2 permeability came out at 0.53 Barrer.
For `*CC(*)O` (repeat unit), the CO2 permeability was found to be 1.2e-06 Barrer and the O2 permeability is 7e-07 Barrer.
On to `*c1ccc(Oc2ccc(Oc3ccc(*)cc3)c3c2C2c4ccccc4C3c3ccccc32)cc1` (repeat unit), for which the CH4 permeability is 0.21 Barrer, the CO2 permeability is 13.5 Barrer, the N2 permeability turned out to be 0.58 Barrer and the O2 permeability was determined as 3.4 Barrer.
`*C(=C(*)c1ccc(C(C)C)cc1)c1ccccc1` (repeat unit) showed a CO2 permeability of 1100 Barrer, an N2 permeability of 150 Barrer and an O2 permeability of 300 Barrer.
Turning to `*Sc1ccc(*)cc1` (repeat unit), the CH4 permeability stood at 0.066 Barrer, the CO2 permeability is 1.6 Barrer, the N2 permeability was determined as 0.046 Barrer and the O2 permeability came to 0.19 Barrer.
On to `*c1cccc(Oc2ccc(C(c3ccc(Oc4cccc(-n5c(=O)c6cc7c(=O)n(*)c(=O)c7cc6c5=O)c4)cc3)(C(F)(F)F)C(F)(F)F)cc2)c1` (repeat unit), for which the CH4 permeability amounted to 0.17 Barrer, the CO2 permeability is 6.12 Barrer, the H2 permeability amounted to 19 Barrer and the N2 permeability stood at 0.292 Barrer. The O2 permeability was 1.4 Barrer.
In turn, `*Nc1ccc(S(=O)(=O)c2ccc(NC(=O)c3cc(C(*)=O)cc(-c4ccccc4)c3)cc2)cc1` (repeat unit) registered a CH4 permeability of 0.11 Barrer, a CO2 permeability of 3.2 Barrer, an H2 permeability of 7.6 Barrer and an N2 permeability of 0.13 Barrer. The compound also showed an O2 permeability of 0.75 Barrer.
`*c1ccc(Cc2ccc(N3C(=O)c4ccc(-c5ccc6c(c5)C(=O)N(*)C6=O)cc4C3=O)c(Cl)c2)cc1Cl` (repeat unit) showed a CH4 permeability of 0.0164 Barrer, a CO2 permeability of 0.978 Barrer, an N2 permeability of 0.0307 Barrer and an O2 permeability of 0.26 Barrer.
Compound `*Oc1cc2c(cc1O*)C1(c3cc(C(C)(C)C)ccc3-2)c2cc(C(C)(C)C)ccc2-c2cc3c(cc21)Oc1c(C#N)c(*)c(*)c(C#N)c1O3` (repeat unit) yielded a CH4 permeability of 1700 Barrer, a CO2 permeability of 13200 Barrer, an H2 permeability of 5150 Barrer and an N2 permeability of 815 Barrer. This compound also had an O2 permeability of 2310 Barrer.
The compound `*NCCCCCC(*)=O` (repeat unit) gave a CO2 permeability of 0.165 Barrer and an O2 permeability of 0.036 Barrer.
`*C(=C(*)c1ccc([Si](c2ccccc2)(c2ccccc2)c2ccccc2)cc1)c1ccccc1` (repeat unit) came in with a CH4 permeability of 5.58 Barrer, a CO2 permeability of 78.8 Barrer, an H2 permeability of 51.7 Barrer and an N2 permeability of 2.78 Barrer. The compound also registered an O2 permeability of 12.1 Barrer.
In turn, `*c1ccc(Cc2ccc(N3C(=O)c4ccc(Oc5ccc6c(c5)C(=O)N(*)C6=O)cc4C3=O)cc2)cc1` (repeat unit) showed an H2 permeability of 5.62 Barrer, an N2 permeability of 0.028 Barrer and an O2 permeability of 0.261 Barrer.
For `*CC=C(C*)[Si](C)(C)OC(C)C` (repeat unit), the CH4 permeability stood at 3.1 Barrer, the CO2 permeability was determined as 23.2 Barrer, the N2 permeability is 1.5 Barrer and the O2 permeability was 6 Barrer.
Take `*c1ccc(Oc2ccc3ccccc3c2-c2c(Oc3ccc(N4C(=O)c5ccc(C(c6ccc7c(c6)C(=O)N(*)C7=O)(C(F)(F)F)C(F)(F)F)cc5C4=O)cc3C(F)(F)F)ccc3ccccc23)c(C(F)(F)F)c1` (repeat unit): the CH4 permeability came to 0.41 Barrer, the CO2 permeability was determined as 25.9 Barrer, the H2 permeability was 36.8 Barrer and the N2 permeability was 0.78 Barrer. In addition, the O2 permeability is 4.89 Barrer.
Turning to `*C(=C(*)c1ccc([Si](C)(C)CCCCCCCC)cc1)c1ccc(C(C)(C)C)cc1` (repeat unit), the CO2 permeability was 100 Barrer, the N2 permeability turned out to be 7.5 Barrer and the O2 permeability is 26 Barrer.
As for `*Nc1ccc(*)cc1` (repeat unit), the CH4 permeability was determined as 0.0094 Barrer, the CO2 permeability came out at 0.67 Barrer, the H2 permeability was determined as 3.66 Barrer and the N2 permeability was 0.0165 Barrer. The compound further registered an O2 permeability of 0.135 Barrer.
Take `*O[Si](C)(C)CCCCCCCC[Si](*)(C)C` (repeat unit): the CH4 permeability amounted to 360 Barrer, the CO2 permeability turned out to be 1200 Barrer and the O2 permeability came out at 237 Barrer.
`*C=CCCC*` (repeat unit) gave a CH4 permeability of 430 Barrer, a CO2 permeability of 2000 Barrer, an H2 permeability of 415 Barrer and an N2 permeability of 100 Barrer. For the same compound, the O2 permeability turned out to be 310 Barrer.
For `*OC(=O)Oc1c(Br)cc(C(C)(C)c2cc(Br)c(*)c(Br)c2)cc1Br` (repeat unit), the CH4 permeability was determined as 0.123 Barrer, the CO2 permeability is 4.21 Barrer, the H2 permeability stood at 43 Barrer and the N2 permeability was found to be 0.191 Barrer. The same compound registered an O2 permeability of 1.43 Barrer.
For `*C(=C(*)c1ccc2c(c1)C1(CC1)c1ccccc1-2)c1ccc([Si](C)(C)C)cc1` (repeat unit), in that order: 1500 Barrer, 4100 Barrer, 1900 Barrer, 540 Barrer and 1000 Barrer.
`*CC=C(C*)[Si](C)(OC(C)C)OC(C)C` (repeat unit): the CH4 permeability was 63.2 Barrer, the CO2 permeability amounted to 345 Barrer, the N2 permeability is 25.4 Barrer and the O2 permeability stood at 69.2 Barrer.
`*CC=C(C*)[Si](OC(C)C)(OC(C)C)OC(C)C` (repeat unit) returned a CH4 permeability of 263 Barrer, a CO2 permeability of 1230 Barrer, an N2 permeability of 109 Barrer and an O2 permeability of 247 Barrer.
In turn, `*c1ccc2c(-c3c(O)ccc4cc(N5C(=O)c6ccc(Oc7ccc8c(c7)C(=O)N(*)C8=O)cc6C5=O)ccc34)c(O)ccc2c1` (repeat unit) displayed a CH4 permeability of 0.03 Barrer, a CO2 permeability of 1.87 Barrer, an H2 permeability of 2.72 Barrer and an N2 permeability of 0.05 Barrer. This compound registered an O2 permeability of 0.35 Barrer.
In the case of `*Nc1ccc(*)cc1OCC` (repeat unit), the CO2 permeability stood at 2.22 Barrer, the H2 permeability was 8.1 Barrer, the N2 permeability turned out to be 0.107 Barrer and the O2 permeability came to 0.62 Barrer.
With `*c1cccc(-c2nc3cc(-c4ccc5[nH]c(*)nc5c4)ccc3[nH]2)c1` (repeat unit), the CH4 permeability came out at 0.0018 Barrer, the CO2 permeability amounted to 0.16 Barrer, the H2 permeability was determined as 0.615 Barrer and the N2 permeability worked out at 0.0048 Barrer. This compound also registered an O2 permeability of 0.015 Barrer.
As for `*c1ccc(Cc2ccc(N3C(=O)c4ccc(S(=O)(=O)c5ccc6c(c5)C(=O)N(*)C6=O)cc4C3=O)cc2)cc1` (repeat unit), the H2 permeability is 6.32 Barrer, the N2 permeability was determined as 0.032 Barrer and the O2 permeability was 0.296 Barrer.
The compound `*Oc1ccc(C(C)(C)c2ccc(OC(=O)c3cc(C(*)=O)cc(C(C)(C)C)c3)c(C(C)C)c2)cc1C(C)C` (repeat unit) returned a CH4 permeability of 1.43 Barrer, a CO2 permeability of 16.1 Barrer, an H2 permeability of 41.4 Barrer and an N2 permeability of 1.08 Barrer. Moreover, the O2 permeability came to 5.03 Barrer.
Compound `*c1c(C)cc(Cc2cc(C)c(N3C(=O)c4ccc(-c5ccc6c(c5)C(=O)N(*)C6=O)cc4C3=O)c(C)c2)cc1C` (repeat unit) returned a CH4 permeability of 0.818 Barrer, a CO2 permeability of 22.4 Barrer, an N2 permeability of 0.913 Barrer and an O2 permeability of 4.73 Barrer.
